The test system of this test is CF nasal epithelial cells. Briefly: Intracellular calcium [Ca^2+ ]i in single CF nasal epithelial cells (Fura-2). It counts as cell-based, human. Conditions: FIG. 6. The protocol:
Freshly excised human nasal epithelium from normal or cystic fibrosis subjects was grown in primary culture in F-12, hormone-supplemented medium in accordance with known procedures. See R. Wu et al., Am. Rev. Respir. Dis. […] For [Ca^2+ ]i measurements, cultures were grown on non-fluorescent vitrogen substrates on glass coverslips. Cultures for electrophysiologic studies were grown to confluence on permeable collagen matrix supports (CMS), allowing addition of agonists to the basolateral or apical surface of the epithelial sheet.
Primary human nasal epithelial cells grown to confluence on vitrogen coated coverslips were loaded with a final concentration of 3 μM Fura-2/AM at 37° C. for 30 minutes. The cells were then washed in NaCl Ringer and mounted in a chamber for measurements of fluorescence. To reduce the rate of leakage of Fura-2 from the cell into the extracellular space and avoid time-dependent compartmentalization of the probe, all measurements of [Ca^2+ ]i were performed at 25° C.
Measurements of [Ca^2+ ]i in single human nasal epithelial cells were obtained with a modular microspectrofluorimeter (SPEX Industries, Inc., Edison, N.J.) attached to a Zeiss Axiovert IM 35 microscope. […] The fluorescent signal from a single cell was measured with a photometer equipped with a pinhole (spot diameter of 3-5 μm) that excluded signals from adjacent cells. […]

`Nc1ncnc2c1ncn2[C@@H]1O[C@H](COP(=O)(O)OP(=O)(O)OP(=O)(O)O)[C@@H](O)[C@H]1O` [ATP, adenosine triphosphate]: the “[Ca^2+ ]i response in CF tissues” value is “Increases in [Ca^2+ ]i”.

The values above are taken from patent US5292498A, “Method of treating lung disease with uridine triphosphates” (The University of North Carolina At Chapel Hill, priority 1991, dated 1994).
